Test results taken from PMC8972088 (Bioorganic & medicinal chemistry, 2021).

How the values were obtained:
GSK-3β [1] = molecular target: T1, GSK-3β (Homo sapiens, UniProt P49841); experiment: GSK-3β kinase assay in presence of reducing agents; conditions: inhibitor 10 μM; for effect of reducing agents on potency: 2 mM DTT, GSH or TCEP, 84 min
GSK-3β [2] = molecular target: T1, GSK-3β; experiment: PhosphoSens real-time kinase assay, wild type GSK-3β; type: biochemical; conditions: for increase in potency with preincubation: 3-hour preincubation vs no preincubation
GSK-3β [3] = molecular target: T1, GSK-3β; experiment: Jump dilution assay; type: biochemical; conditions: 3-hour pre-incubation with 50 nM GSK-3β, 100-fold dilution; 2 mM ATP
MAPKAPK5 (PRAK) = molecular target: T2, MAPKAPK5 (PRAK) (Homo sapiens, UniProt Q8IW41); experiment: Kinase panel screen, Z'-LYTE; type: biochemical; conditions: read-out: Inhibition MAPKAPK5 (PRAK), 2 μM COB-187, ATP Km, ±SD n=2
T2 sequence (Q8IW41 1-473): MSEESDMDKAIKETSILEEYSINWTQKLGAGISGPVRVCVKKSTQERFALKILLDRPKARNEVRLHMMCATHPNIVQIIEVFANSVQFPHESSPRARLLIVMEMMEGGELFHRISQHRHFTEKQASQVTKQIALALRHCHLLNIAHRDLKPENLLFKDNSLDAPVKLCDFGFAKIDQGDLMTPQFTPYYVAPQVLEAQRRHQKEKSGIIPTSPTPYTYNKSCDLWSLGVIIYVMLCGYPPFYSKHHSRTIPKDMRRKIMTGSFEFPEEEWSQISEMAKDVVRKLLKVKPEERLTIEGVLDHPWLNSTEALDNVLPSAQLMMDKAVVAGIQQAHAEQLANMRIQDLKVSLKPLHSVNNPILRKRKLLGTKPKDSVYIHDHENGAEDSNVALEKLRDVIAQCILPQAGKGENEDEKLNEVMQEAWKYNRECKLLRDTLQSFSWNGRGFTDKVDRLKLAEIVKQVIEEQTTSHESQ

[4] = Reaction of COB-187 with ethanethiol and tributylphosphine in THF; type: physicochemical; conditions: room temperature to reflux, HPLC and 1H-NMR
KDR (VEGFR2) = KDR (VEGFR2) (Homo sapiens, UniProt P35968); experiment: Kinase panel screen, Z'-LYTE; type: biochemical; conditions: read-out: Inhibition KDR (VEGFR2)
GSK-3β C199A mutant = GSK-3β C199A mutant (Homo sapiens, UniProt P49841, C199A); experiment: PhosphoSens kinase assay, GSK-3β C199A mutant; type: biochemical; conditions: C199A vs wild type GSK-3β
GSK-3β C199A mutant, sequence (P49841 whole entry C199A): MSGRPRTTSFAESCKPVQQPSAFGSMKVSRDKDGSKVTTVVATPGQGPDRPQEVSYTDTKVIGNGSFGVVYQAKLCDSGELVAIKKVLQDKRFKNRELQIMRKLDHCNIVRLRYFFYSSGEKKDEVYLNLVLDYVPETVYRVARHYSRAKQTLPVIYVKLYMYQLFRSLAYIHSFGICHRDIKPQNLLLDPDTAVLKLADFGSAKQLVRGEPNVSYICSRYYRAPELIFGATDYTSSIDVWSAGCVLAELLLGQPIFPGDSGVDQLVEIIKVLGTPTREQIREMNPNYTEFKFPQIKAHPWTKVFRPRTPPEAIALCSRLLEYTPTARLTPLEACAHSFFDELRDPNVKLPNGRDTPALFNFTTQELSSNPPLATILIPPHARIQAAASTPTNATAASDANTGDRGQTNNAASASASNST

T1 sequence (P49841 whole entry): as the sequence (P49841 whole entry C199A) above, with A199C counted along it
KDR (VEGFR2), sequence (P35968 20-1356): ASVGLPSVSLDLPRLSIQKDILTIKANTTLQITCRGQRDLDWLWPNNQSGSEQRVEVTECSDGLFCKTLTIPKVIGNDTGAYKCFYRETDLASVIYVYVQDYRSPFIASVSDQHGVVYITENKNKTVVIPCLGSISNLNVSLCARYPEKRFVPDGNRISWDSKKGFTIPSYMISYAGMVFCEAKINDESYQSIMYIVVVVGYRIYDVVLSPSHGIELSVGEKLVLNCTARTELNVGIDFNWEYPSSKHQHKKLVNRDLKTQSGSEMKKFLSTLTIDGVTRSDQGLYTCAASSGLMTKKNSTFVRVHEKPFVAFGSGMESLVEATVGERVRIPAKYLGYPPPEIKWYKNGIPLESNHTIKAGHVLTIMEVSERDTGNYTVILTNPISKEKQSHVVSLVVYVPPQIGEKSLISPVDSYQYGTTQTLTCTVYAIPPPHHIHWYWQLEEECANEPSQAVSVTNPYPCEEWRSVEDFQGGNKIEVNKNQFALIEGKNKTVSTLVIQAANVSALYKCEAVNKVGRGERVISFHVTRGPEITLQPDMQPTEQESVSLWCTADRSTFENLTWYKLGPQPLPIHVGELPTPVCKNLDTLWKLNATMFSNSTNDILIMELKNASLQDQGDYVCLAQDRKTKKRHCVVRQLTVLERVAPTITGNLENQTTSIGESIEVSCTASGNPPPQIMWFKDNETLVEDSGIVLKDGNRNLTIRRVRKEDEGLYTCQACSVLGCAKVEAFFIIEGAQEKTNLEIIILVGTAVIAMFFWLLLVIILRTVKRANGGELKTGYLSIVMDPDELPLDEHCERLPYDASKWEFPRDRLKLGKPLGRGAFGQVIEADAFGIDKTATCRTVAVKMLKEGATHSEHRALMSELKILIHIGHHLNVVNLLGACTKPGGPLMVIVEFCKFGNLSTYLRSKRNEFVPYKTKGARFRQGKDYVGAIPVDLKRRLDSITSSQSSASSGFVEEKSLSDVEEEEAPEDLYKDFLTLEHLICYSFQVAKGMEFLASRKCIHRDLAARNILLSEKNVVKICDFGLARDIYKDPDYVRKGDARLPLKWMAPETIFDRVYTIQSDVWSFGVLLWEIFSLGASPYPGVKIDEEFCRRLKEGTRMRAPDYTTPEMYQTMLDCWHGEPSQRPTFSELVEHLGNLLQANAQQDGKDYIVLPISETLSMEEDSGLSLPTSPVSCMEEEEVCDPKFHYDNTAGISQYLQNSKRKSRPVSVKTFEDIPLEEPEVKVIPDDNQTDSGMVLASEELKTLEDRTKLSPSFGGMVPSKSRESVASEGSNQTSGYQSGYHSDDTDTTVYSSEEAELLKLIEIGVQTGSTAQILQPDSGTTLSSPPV

Structure (SMILES) | effect of DTT or GSH on potency (GSK-3β [1]; 2 mM DTT or GSH) | effect of TCEP on potency (GSK-3β [1]; 2 mM TCEP) | increase in potency with preincubation (GSK-3β [2]) | recovery of GSK-3β activity upon jump dilution (GSK-3β [3]) | inhibition at 2 µM (MAPKAPK5 (PRAK)) [%] | reaction with ethanethiol and tributylphosphine [4] | inhibition at 2 µM (KDR (VEGFR2)) [%] | average k4 from fit of kobs vs concentration to Eq. 8 (induced-fit) (GSK-3β [2]; average of five replicates, ± SD) | decrease in potency for the mutant versus wild type (GSK-3β C199A mutant) [fold] | effect of reducing agents on potency (GSK-3β [1])
COc1ccc(CNC(=O)Nc2ncc([N+](=O)[O-])s2)cc1 [AR-A014418] | not significantly altered | significant but modest reduction | – | – | – | – | – | – | – | –
O=C1Cc2c([nH]c3ccc([N+](=O)[O-])cc23)-c2ccccc2N1 [Alsterpaullone] | – | – | no significant increase | recovered most of its activity upon dilution | – | – | – | – | – | –
OC1(c2ccccc2)CSC(=S)N1Cc1ccncc1 (centres unmarked) [COB-187, 4-hydroxy-4-phenyl-3-(pyridin-4-ylmethyl)thiazolidine-2-thione] | – | – | < 4 fold | – | ~64 | no evidence of any reaction | 8 ± 8.2 | 2.9 × 10^−4 (±4.8 × 10^−4 SD) 1/min | > 300 | significantly diminished
COc1cc(O)c2c(c1)[C@H]1O[C@@H]1C[C@H](O)[C@H](O)C(=O)/C=C\C[C@H](C)OC2=O [Hypothemycin] | – | – | ~ 17 fold | did not recover activity upon jump dilution | – | – | – | – | – | significantly diminished
